Assay [1] in a line: β-carotene-linoleic acid assay (antioxidant). The conditions noted are these: mean ± SEM of three parallel measurements. Here is the method:
(§1) DMSO solutions of four different concentrations (12.5, 25, 50, and 100 μM) of the synthesized compound 1–26 were prepared. DMSO was used as a control, while BHA and α-TOC were used as antioxidant standards.

Another assay deals with urease (Canavalia ensiformis, UniProt P07374). Nature of the assay: biochemical. The conditions noted are these: urease activity IC50, mean ± SEM of three parallel measurements.
urease, sequence (P07374 whole entry, looked up): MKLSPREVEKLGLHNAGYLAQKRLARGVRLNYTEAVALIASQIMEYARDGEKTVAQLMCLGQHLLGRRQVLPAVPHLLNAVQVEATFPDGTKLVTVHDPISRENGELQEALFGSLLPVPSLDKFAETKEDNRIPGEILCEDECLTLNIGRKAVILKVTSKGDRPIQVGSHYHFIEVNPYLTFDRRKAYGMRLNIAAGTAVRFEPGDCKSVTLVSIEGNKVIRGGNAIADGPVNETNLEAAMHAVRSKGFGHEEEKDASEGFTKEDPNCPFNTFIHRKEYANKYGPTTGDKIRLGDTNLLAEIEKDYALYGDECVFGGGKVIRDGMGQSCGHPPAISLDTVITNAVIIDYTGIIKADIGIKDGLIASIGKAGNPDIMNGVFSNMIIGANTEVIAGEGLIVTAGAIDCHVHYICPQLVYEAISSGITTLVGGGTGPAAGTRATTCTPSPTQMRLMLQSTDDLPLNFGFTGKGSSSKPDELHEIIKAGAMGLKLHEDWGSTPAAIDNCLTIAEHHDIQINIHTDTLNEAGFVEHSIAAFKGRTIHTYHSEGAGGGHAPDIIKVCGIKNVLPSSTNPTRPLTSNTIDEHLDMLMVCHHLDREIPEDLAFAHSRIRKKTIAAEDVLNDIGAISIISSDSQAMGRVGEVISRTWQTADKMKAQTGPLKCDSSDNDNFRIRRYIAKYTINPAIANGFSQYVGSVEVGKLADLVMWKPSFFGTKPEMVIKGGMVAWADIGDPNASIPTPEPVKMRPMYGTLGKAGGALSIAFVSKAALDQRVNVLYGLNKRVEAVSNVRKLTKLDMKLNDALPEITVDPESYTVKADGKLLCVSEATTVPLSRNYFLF
A short description of assay [2]: DPPH radical scavenging assay. Conditions: mean ± SEM of three parallel measurements. Here is the method: as §1
Assay [3] is described as follows: ABTS cation radical scavenging assay. The conditions noted are these: mean ± SEM of three parallel measurements. How it is done:
as §1

A short description of assay [4]: CUPRAC assay (Cu(II) reducing power). The conditions noted are these: concentration at 0.500 absorbance; mean ± SEM. How it is done: as §1
In the next assay the target is tyrosinase. In kind it is biochemical. Conditions: mean ± SEM of three parallel measurements.
In assay [5] the target is T1, butyrylcholinesterase (BChE) (Equus caballus, UniProt P81908).
T1 construct: butyrylcholinesterase (BChE) from horse serum; from tissue; host or cells: horse serum
T1 sequence (P81908 whole entry): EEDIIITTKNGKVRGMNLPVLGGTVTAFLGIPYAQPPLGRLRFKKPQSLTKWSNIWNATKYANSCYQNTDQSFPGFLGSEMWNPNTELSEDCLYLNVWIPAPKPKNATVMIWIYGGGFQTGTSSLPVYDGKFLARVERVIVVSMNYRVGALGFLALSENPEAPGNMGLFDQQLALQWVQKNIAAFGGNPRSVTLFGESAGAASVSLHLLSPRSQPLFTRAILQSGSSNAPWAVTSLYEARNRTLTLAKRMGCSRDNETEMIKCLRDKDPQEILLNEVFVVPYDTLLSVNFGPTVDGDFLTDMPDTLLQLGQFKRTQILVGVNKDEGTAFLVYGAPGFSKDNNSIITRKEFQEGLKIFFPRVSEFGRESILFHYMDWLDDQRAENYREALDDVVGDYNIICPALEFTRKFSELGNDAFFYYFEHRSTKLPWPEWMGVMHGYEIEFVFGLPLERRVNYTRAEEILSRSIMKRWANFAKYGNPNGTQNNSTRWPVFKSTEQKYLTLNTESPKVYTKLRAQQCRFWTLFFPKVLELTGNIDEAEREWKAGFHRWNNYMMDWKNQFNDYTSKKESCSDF
In words: biochemical. Conditions: for SI for BChE: Selectivity index: IC50 for AChE/IC50 for BChE; for IC50: mean ± SEM of three parallel measurements. How it is done: (§2) Anticholinesterase activity of all was performed according to the Ellman’s method using a 96-well microplate reader. Acetylcholinesterase (AChE) from electric eel and butyrylcholinesterase (BChE) from horse serum were used. Acetylthiocholine iodide and butyrylthiocholine chloride were utilized as substrates. DTNB (5,50-dithiobis(2-nitrobenzoic) acid was used as a coloring agent to measure the anticholinesterase activity.[43] Measurements were obtained in triplicate.

Assay [6] deals with T2, Acetylcholinesterase (AChE) (Electrophorus electricus, UniProt O42275).
T2 construct: Acetylcholinesterase (AChE) from electric eel; from tissue; host or cells: electric eel
T2 sequence (O42275 24-633): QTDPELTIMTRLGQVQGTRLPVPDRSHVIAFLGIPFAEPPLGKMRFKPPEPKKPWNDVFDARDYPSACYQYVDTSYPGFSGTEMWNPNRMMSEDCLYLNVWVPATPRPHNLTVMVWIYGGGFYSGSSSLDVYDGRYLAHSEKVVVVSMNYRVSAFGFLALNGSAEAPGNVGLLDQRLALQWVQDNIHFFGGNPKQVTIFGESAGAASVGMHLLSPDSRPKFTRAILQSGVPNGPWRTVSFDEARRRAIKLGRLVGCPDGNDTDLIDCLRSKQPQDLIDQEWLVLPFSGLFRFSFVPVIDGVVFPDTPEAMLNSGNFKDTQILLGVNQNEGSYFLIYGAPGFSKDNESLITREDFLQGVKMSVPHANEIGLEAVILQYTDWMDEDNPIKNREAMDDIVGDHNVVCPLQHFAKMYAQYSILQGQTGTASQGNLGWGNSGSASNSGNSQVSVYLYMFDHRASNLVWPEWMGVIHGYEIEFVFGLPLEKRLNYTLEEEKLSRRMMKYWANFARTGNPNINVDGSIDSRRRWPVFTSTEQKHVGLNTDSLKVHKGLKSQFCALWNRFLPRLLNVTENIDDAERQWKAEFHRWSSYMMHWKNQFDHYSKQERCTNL
Nature of the assay: biochemical. The conditions noted are these: for SI for AChE: Selectivity index: IC50 for BChE/IC50 for AChE; for IC50: mean ± SEM of three parallel measurements. Here is the method: as §2

Where “and” joins values, the source holds several entries; their conditions need not be identical. Identical values can stand only once.

With `O=C1C(=Cc2ccco2)SC(=NN2CCOCC2)N1c1ccccc1` [Compound 15, 5-(Furan-2-ylmethylene)-2-(morpholinoimino)-3-phenylthiazolidin-4-one], the IC50 in assay [1] came to 29.7 ± 0.34 µM; at urease, 46.4 ± 1.08 µM; in assay [2], 35.05 ± 0.29 µM; in assay [3] it was 32.2 ± 0.87 µM; on tyrosinase, 5190 ± 30 µM; in assay [5], 37.6 ± 0.61 µM. In addition, the IC50 in assay [6] came to 27.4 ± 0.76 µM. In assay [4], the “CUPRAC assay A0.5” value turned out to be 31.24 ± 0.00 µM. Besides, in assay [5], the “SI for BChE” value stood at 0.73. For the same compound, in assay [6], the “SI for AChE” value is on record as 1.37.

On to `O=C1C(=Cc2ccsc2)SC(=NN2CCOCC2)N1c1ccccc1` [Compound 16, 2-(Morpholinoimino)-3-phenyl-5-(thiophen-3-ylmethylene) thiazolidine-4-one], for which the IC50 in assay [1] worked out at 31.4 ± 1.01 µM; on urease, 42 ± 0.81 µM; in assay [2] it was 36.21 ± 0.17 µM; in assay [3] it was 35.7 ± 1.61 µM; against tyrosinase, 24080 ± 150 µM; in assay [5] it was 42.5 ± 0.18 µM. In assay [6], this compound returned an IC50 of 29 ± 1.03 µM. For the same compound, the “CUPRAC assay A0.5” value in assay [4] was found to be 16.94 ± 0.01 µM. For the same compound, in assay [5], the “SI for BChE” value amounted to 0.69. In assay [6], the “SI for AChE” value was found to be 1.46.

With `Cc1ccsc1C=C1SC(=NN2CCOCC2)N(c2ccccc2)C1=O` [Compound 17, 5-((3-Methylthiophene-2-yl)methylene)-2-(morpholinoimino)-3-phenylthiazolidin-4-one], the IC50 in assay [1] was found to be 36 ± 0.58 µM; against urease, 40.22 ± 0.12 µM; in assay [2], 36 ± 1 µM; in assay [3], 33.2 ± 0.65 µM; against tyrosinase it was 3220 ± 700 µM; in assay [5] it was 49.8 ± 1.01 µM. Moreover, the IC50 in assay [6] was 34.8 ± 0.53 µM. Further, in assay [4], the “CUPRAC assay A0.5” value came to 27.65 ± 0.01 µM. In addition, the “SI for BChE” value in assay [5] stood at 0.70. The “SI for AChE” value in assay [6] was found to be 1.43.

With `O=C1C(=Cc2ccc[nH]2)SC(=NN2CCOCC2)N1c1ccccc1` [Compound 18, 5-((1H-Pyrrol-2-yl)methylene)-2-(morpholinoimino)-3-phenylthiazolidin-4-one], the IC50 in assay [1] was determined as 33.62 ± 0.04 µM; against urease it was 20.2 ± 0.77 µM; in assay [2], 35.07 ± 0.03 µM; in assay [3] it was 31.04 ± 0.17 µM; on tyrosinase it was 16000 ± 410 µM; in assay [5] it was 32.9 ± 0.75 µM. The same compound displayed an IC50 in assay [6] of 21.4 ± 0.92 µM. Besides, the “CUPRAC assay A0.5” value in assay [4] amounted to 26.60 ± 0.02 µM. In assay [5], the “SI for BChE” value is 0.65. Also, the “SI for AChE” value in assay [6] is 1.54.

In the case of `Cn1cccc1C=C1SC(=NN2CCOCC2)N(c2ccccc2)C1=O` [Compound 19], the half-maximal inhibitory concentration (IC50) in assay [1] came to 30.8 ± 0.47 µM; against urease, 18.2 ± 0.5 µM; in assay [2] it was 34.45 ± 0.05 µM; in assay [3] it was 29.88 ± 0.2 µM; on tyrosinase, 19280 ± 90 µM; in assay [5], 29.7 ± 0.72 µM. In assay [6], this compound yielded an IC50 of 20.6 ± 0.55 µM. Besides, the “CUPRAC assay A0.5” value in assay [4] was determined as 25.67 ± 0.00 µM. The “SI for BChE” value in assay [5] came to 0.69. Further, the “SI for AChE” value in assay [6] was determined as 1.44.

On to `O=C1C(=Cc2nccs2)SC(=NN2CCOCC2)N1c1ccccc1` [Compound 20], for which the IC50 in assay [1] was found to be 32.8 ± 0.33 µM; at urease, 16.8 ± 0.19 µM; in assay [2] it was 35.2 ± 0.6 µM; in assay [3], 31.3 ± 0.77 µM; at tyrosinase it was 21400 ± 310 µM; in assay [5] it was 34.05 ± 0.06 µM. The compound further had an IC50 in assay [6] of 26.8 ± 0.77 µM. For the same compound, the “CUPRAC assay A0.5” value in assay [4] was 36.95 ± 0.03 µM. The “SI for BChE” value in assay [5] was determined as 0.79. The “SI for AChE” value in assay [6] turned out to be 1.26.

In the case of `O=C1C(=Cc2ccccn2)SC(=NN2CCOCC2)N1c1ccccc1` [Compound 21, 2-(Morpholinoimino)-3-phenyl-5-(pyridin-2-ylmethylene)thiazolidin-4-one], the IC50 in assay [1] worked out at 31.5 ± 0.48 µM; on urease, 27.8 ± 0.51 µM; in assay [2], 35.01 ± 0.01 µM; in assay [3], 30.7 ± 0.56 µM; against tyrosinase it was 11200 ± 390 µM; in assay [5], 28.1 ± 0.55 µM. This compound registered an IC50 in assay [6] of 20.6 ± 1.02 µM. Also, in assay [4], the “CUPRAC assay A0.5” value came out at 30.77 ± 0.00 µM. Further, the “SI for BChE” value in assay [5] amounted to 0.73. In addition, the “SI for AChE” value in assay [6] is listed as 1.36.

In the case of `O=C1C(=Cc2cccnc2)SC(=NN2CCOCC2)N1c1ccccc1` [Compound 22, 2-(Morpholinoimino)-3-phenyl-5-(pyridin-3-ylmethylene)thiazolidin-4-one], the IC50 stood at 31.6 ± 0.79 µM in assay [1]; 26.2 ± 0.47 µM on urease; 34.77 ± 0.22 µM in assay [2]; 30.11 ± 0.28 µM in assay [3]; 9130 ± 550 µM against tyrosinase; 33 ± 0.84 µM in assay [5]. Moreover, in assay [6], the IC50 stood at 24.8 ± 0.3 µM. Besides, in assay [4], the “CUPRAC assay A0.5” value came out at 30.42 ± 0.01 µM. Further, in assay [5], the “SI for BChE” value is listed as 0.75. Also, in assay [6], the “SI for AChE” value is 1.33.

Turning to `O=C1C(=Cc2ccncc2)SC(=NN2CCOCC2)N1c1ccccc1` [Compound 23, 2-(Morpholinoimino)-3-phenyl-5-(pyridin-4-ylmethylene)thiazolidin-4-one], the 50% inhibitory concentration (IC50) in assay [1] was 34.6 ± 0.5 µM; against urease, 25 ± 0.54 µM; in assay [2], 36.14 ± 0.16 µM; in assay [3], 32.72 ± 0.19 µM; on tyrosinase, 8050 ± 110 µM; in assay [5], 25.4 ± 0.26 µM. Half-maximal inhibition in assay [6] (IC50) required 19.7 ± 0.54 µM. For the same compound, the “CUPRAC assay A0.5” value in assay [4] was determined as 31.12 ± 0.00 µM. Also, the “SI for BChE” value in assay [5] is on record as 0.78. In addition, the “SI for AChE” value in assay [6] turned out to be 1.29.

`O=C1C(=Cc2c[nH]c3ccccc23)SC(=NN2CCOCC2)N1c1ccccc1` [Compound 24, 5-((1H-Indol-3-yl)methylene)-2-(morpholinoimino)-3-phenylthiazolidin-4-one]: the half-maximal inhibitory concentration (IC50) is 27.73 ± 0.23 µM in assay [1]; 23.6 µM and 22.5 µM at urease; 33.24 ± 0.21 µM in assay [2]; 30 ± 1.01 µM in assay [3]; 7210 ± 270 µM against tyrosinase; 25.7 ± 0.69 µM in assay [5]. The same compound yielded an IC50 in assay [6] of 19.5 ± 0.29 µM. The “CUPRAC assay A0.5” value in assay [4] turned out to be 30.04 ± 0.02 µM. Also, the “SI for BChE” value in assay [5] was 0.76. Moreover, in assay [6], the “SI for AChE” value was 1.32.

For `O=C1C(=Cc2ccc3[nH]ccc3c2)SC(=NN2CCOCC2)N1c1ccccc1` [Compound 25, 5-((1H-Indole-5-yl)methylene)-2-(morpholinoimino)-3-phenylthiazolidin-4-one], the IC50 worked out at 33.6 ± 0.73 µM in assay [1]; 21.7 ± 0.06 µM on urease; 38.2 ± 0.88 µM in assay [2]; 34.05 ± 0.27 µM in assay [3]; 8400 ± 640 µM on tyrosinase; 25.5 ± 0.78 µM in assay [5]. Moreover, in assay [6], the half-inhibitory concentration (IC50) was found to be 19.8 ± 0.5 µM. In addition, the “CUPRAC assay A0.5” value in assay [4] stood at 39.50 ± 0.01 µM. Also, in assay [5], the “SI for BChE” value is listed as 0.78. For the same compound, the “SI for AChE” value in assay [6] worked out at 1.29.

Take `O=C1C(=Cc2ccc3ccccc3n2)SC(=NN2CCOCC2)N1c1ccccc1` [Compound 26, 2-(Morpholinoimino)-3-phenyl-5-(quinolin-2-ylmethylene)thiazolidin-4-one]: the IC50 is 22.4 ± 0.3 µM in assay [1]; 21.5 ± 0.44 µM against urease; 29.7 ± 0.9 µM in assay [2]; 26.5 ± 0.63 µM in assay [3]; 8760 ± 900 µM at tyrosinase; 25.7 ± 0.53 µM in assay [5]. Also, in assay [6], half-maximal inhibition (IC50) required 19.8 ± 0.37 µM. For the same compound, in assay [4], the “CUPRAC assay A0.5” value was 25.91 ± 0.02 µM. Also, in assay [5], the “SI for BChE” value was 0.77. The “SI for AChE” value in assay [6] is on record as 1.30.
